Patent US20040068113A1, “Substituted polycyclic aryl and heteroaryl pyridines useful for selective inhibition of the coagulation cascade” (priority 2003, published 2004)

How the values were obtained:
Format in all cases: biochemical
[1] = target: T1, Trypsin (type 1× from porcine pancreas) (Sus scrofa, UniProt P00761); experiment: Trypsin Assay; settings: read-out: Trpysin II IC50
T1 construct: Trypsin (5 ug/ml; type 1× from porcine pancreas); purchased Sigma, St. Louis Mo; host or cells: porcine pancreas
Method: Trypsin (5 ug/ml; type 1× from porcine pancreas) and 0.375 mM N-α-Benzoyl-L-arginine-p-nitroanilide (L-BAPNA) are added to a 96-well assay plate containing either inhibitor or buffer (50 mM Tris-HCl, pH 8.0, 100 mM NaCl, 0.1% BSA). The reactions, in a final volume of 100 ul are measured immediately at 405 nm to determine background absorbance. The plate is incubated at room temperature for 60 min, at which time the rate of hydrolysis of the substrate is measured by monitoring the reaction at 405 nm for the release of p-nitroaniline. Percent inhibition of trypsin activity is calculated from OD405 nm value from the experimental and control sample.
(§1) Recombinant soluble TF, consisting of amino acids 1-219 of the mature protein sequence was expressed in E. coli and purified using a Mono Q Sepharose FPLC. Recombinant human VIIa was purchased from American Diagnostica, Greenwich Conn. and chromogenic substrate N-Methylsulfonyl-D-phe-gly-arg-p-nitroaniline was prepared by American Peptide Company, Inc., Sunnyvale, Calif. Factor Xa was obtained from Enzyme Research Laboratories, South Bend Ind., thrombin from Calbiochem, La Jolla, Calif., and trypsin and L-BAPNA from Sigma, St. Louis Mo. The chromogenic substrates S-2765 and S-2238 were purchased from Chromogenix, Sweden.

Human factor Xa = target: T2, Human factor Xa (Homo sapiens, UniProt P00742); experiment: Xa Assay
T2 construct: purchased Enzyme Research Laboratories, South Bend Ind
Method: (§2) Human factor Xa (0.3 nM) and 0.15 mM N-a-Benzyloxycarbonyl-D-arginyl-L-glycyl-L-arginine-p-nitroaniline-dihydrochloride (S-2765) are added to a 96-well assay plate containing either inhibitor or buffer (50 mM Tris-HCl, pH 8.0, 100 mM NaCl, 0.1% BSA). The reaction, in a final volume of 100 ul is measured immediately at 405 nm to determine background absorbance. The plate is incubated at room temperature for 60 min, at which time the rate of hydrolysis of the substrate is measured by monitoring the reaction at 405 nm for the release of p-nitroaniline. Percent inhibition of Xa activity is calculated from OD405 nm value from the experimental and control sample.
as §1

Human thrombin = Human thrombin (Homo sapiens, UniProt P00734); experiment: Thrombin Assay; settings: read-out: Thrombin II IC50
Method: as §2, with “thrombin (0.28 nm)and 0.06” for “factor Xa (0.3 nM) and 0.15”, “H-D-Phenylalanyl-L-pipecolyl-L-arginine-p-nitroaniline dihydrochloride” for “N-a-Benzyloxycarbonyl-D-arginyl-L-glycyl-L-arginine-p-nitroaniline-dihydrochloride (S-2765)”, “thrombin” for “Xa”, “OD405nm” for “OD405 nm”
as §1

[2] = target: T3, recombinant soluble tissue factor and recombinant human factor VIIa (TF-VIIa) (Homo sapiens, UniProt P08709); experiment: TF-VIIa Assay
T3 construct: purchased American Diagnostica, Greenwich Conn; host or cells: soluble TF made in house in E. coli
Method: as §2, with “In this assay 100 nM recombinant soluble tissue” for “Human”, “factor” for “factor Xa (0.3 nM)”, “2 nM recombinant human factor VIIa” for “0.15 mM N-a-Benzyloxycarbonyl-D-arginyl-L-glycyl-L-arginine-p-nitroaniline-dihydrochloride (S-2765)”, “containing 0.4 mM of the substrate, N-Methylsulfonyl-D-phe-gly-arg-p-nitroaniline and” for “containing”, “(5 mM CaCl2, 50” for “(50”, “TF-VIIa” for “Xa”
as §1

[3] = read-out: Factor Xa percent inhibition

T3 sequence (P08709 213-466 limits assumed): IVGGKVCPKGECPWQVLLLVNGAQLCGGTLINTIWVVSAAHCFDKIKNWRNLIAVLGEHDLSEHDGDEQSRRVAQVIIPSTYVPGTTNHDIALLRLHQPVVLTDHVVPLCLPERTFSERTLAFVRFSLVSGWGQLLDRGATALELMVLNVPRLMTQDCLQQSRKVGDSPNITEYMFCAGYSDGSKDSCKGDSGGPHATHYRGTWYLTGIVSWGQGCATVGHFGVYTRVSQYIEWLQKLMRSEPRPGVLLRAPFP
T3 sequence (P08709 61-212 limits assumed): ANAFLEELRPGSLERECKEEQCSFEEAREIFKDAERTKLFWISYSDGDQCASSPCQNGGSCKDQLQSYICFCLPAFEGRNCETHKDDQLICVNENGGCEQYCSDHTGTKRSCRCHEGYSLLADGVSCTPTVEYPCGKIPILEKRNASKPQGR
T3 sequence (P13726 33-251 partner limits assumed): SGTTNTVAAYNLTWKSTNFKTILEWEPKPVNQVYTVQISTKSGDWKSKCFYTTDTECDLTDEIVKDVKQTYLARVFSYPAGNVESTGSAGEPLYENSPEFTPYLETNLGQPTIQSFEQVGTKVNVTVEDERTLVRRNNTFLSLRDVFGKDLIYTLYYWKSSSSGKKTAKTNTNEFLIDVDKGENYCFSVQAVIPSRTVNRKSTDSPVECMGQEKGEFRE
T2 sequence (P00742 235-488 limits assumed): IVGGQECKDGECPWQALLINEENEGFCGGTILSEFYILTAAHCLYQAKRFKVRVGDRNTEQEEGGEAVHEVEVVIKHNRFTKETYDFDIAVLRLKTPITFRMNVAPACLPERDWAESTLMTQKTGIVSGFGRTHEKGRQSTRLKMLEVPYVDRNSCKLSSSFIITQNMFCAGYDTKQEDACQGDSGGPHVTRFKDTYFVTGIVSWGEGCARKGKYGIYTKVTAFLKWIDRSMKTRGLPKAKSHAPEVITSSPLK
T2 sequence (P00742 41-179 limits assumed): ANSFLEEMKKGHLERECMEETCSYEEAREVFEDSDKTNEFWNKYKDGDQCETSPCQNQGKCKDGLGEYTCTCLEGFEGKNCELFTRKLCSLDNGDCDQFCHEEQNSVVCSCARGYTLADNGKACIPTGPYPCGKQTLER
T1 sequence (P00761 9-231): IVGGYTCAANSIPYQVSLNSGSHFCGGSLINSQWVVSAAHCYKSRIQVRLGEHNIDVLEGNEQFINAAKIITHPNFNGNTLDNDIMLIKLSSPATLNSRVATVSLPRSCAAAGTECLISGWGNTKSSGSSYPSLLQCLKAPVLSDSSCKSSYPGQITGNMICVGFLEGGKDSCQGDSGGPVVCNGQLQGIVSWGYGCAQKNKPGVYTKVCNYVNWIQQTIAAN

IC50 [1] [µM] | inhibition at 30 µM (Human factor Xa; [3]) [%] | IC50 (Human thrombin) [µM] | IC50 [2] [µM] | IC50 (Human factor Xa) [µM] | inhibition at 100 µM (Human factor Xa; @ 100 uM, read-out: Factor Xa percent inhibition) [%] | inhibition at 100 µM ([2]; at 100 uM, read-out: TF-VIIA percent inhibition) [%] | Compound
0.06 | 27 | 0.71 | 2.46 | – | – | – | N=C(N)c1ccc(CNC(=O)Cc2nc(NC3CCC3)ccc2-c2cccc(N)c2)cc1 [Example 1]
0.02 | 26 | 7.13 | 0.07 | – | – | – | N=C(N)c1ccc(CNC(=O)Cc2c(-c3cccc(N)c3)ccc(NC3CCC3)[n+]2[O-])cc1 [Example 2]
0.158 | – | > 100 | 0.72 | > 100 | – | – | CC(C)Nc1ccc(-c2cc(N)cc(C(=O)O)c2)c(CC(=O)NCc2ccc(C(=N)N)cc2)[n+]1[O-] [Example 3]
0.1 | – | 0.37 | 2.38 | > 100 | – | – | CC(C)Nc1ccc(-c2ccccc2OCc2ccccc2)c(CC(=O)NCc2ccc(C(=N)N)cc2)[n+]1[O-] [Example 5]
0.17 | – | 86.5 | 6.94 | > 100 | – | – | CC(C)Nc1ccc(-c2ccccc2Oc2ccccc2)c(CC(=O)NCc2ccc(C(=N)N)cc2)[n+]1[O-] [Example 6]
0.022 | – | 60.7 | 0.084 | – | – | – | CC(C)Nc1ccc(-c2cc(N)cc(N)c2)c(CC(=O)NCc2ccc(C(=N)N)cc2)[n+]1[O-] [Example 7]
0.21 | – | 6.6 | 1.72 | > 100 | – | – | CC(C)Nc1ccc(-c2cccc(CO)c2)c(CC(=O)NCc2ccc(C(=N)N)cc2)[n+]1[O-] [Example 9]
0.035 | – | 3 | 1.7 | – | 40 | – | CC(=O)c1cccc(-c2ccc(NC(C)C)[n+]([O-])c2CC(=O)NCc2ccc(C(=N)N)cc2)c1 [Example 10]
0.079 | – | 39.5 | 5.6 | 21 | – | – | CC(C)Nc1ccc(-c2csc3ccccc23)c(CC(=O)NCc2ccc(C(=N)N)cc2)[n+]1[O-] [Example 11]
0.99 | – | 29 | – | – | – | 23 | CC(C)Nc1ccc(/C=C/c2ccccc2)c(CC(=O)NCc2ccc(C(=N)N)cc2)[n+]1[O-] [Example 12]
0.121 | – | 12 | 1.42 | > 100 | – | – | CC(C)Nc1ccc(-c2ccccc2CN2C(=O)c3ccccc3C2=O)c(CC(=O)NCc2ccc(C(=N)N)cc2)[n+]1[O-] [Example 13]
< 0.14 | – | 9.9 | 0.155 | > 100 | – | – | CC(C)Nc1ccc(-c2cccc(N)c2)c(CC(=O)NCc2ccc(C(=N)N)cc2)[n+]1[O-] [Example 14]
